Results taken from patent US7442796B2, “Compounds for the treatment of metabolic disorders” (Wellstat Therapeutics Corporation, priority 2003, dated 2008).

Tested on: db/db mice
Experiment: Antidiabetic effects in db/db mice (serum glucose and triglycerides after daily oral dosing)
Type: in vivo
Details: male db/db mice, 17 days
Text: C57BL/Ksola (db/db) mice have a defect in leptin signaling, leading to hyperphagia, obesity and diabetes. Moreover, unlike ob/ob mice on a C57BL/6J background, db/db mice on a C57BLKS background undergo failure of their insulin-producing pancreatic islet cells, resulting in progression from hyperinsulinemia (associated with peripheral insulin resistance) to hypoinsulinemic diabetes.
Male obese (db/db homozygote) C57BL/Ksola mice approximately 8 weeks of age, were obtained from Jackson Labs (Bar Harbor, Me.) and sorted into groups of 7 animals each animals such that the body weights (40-45 g) and serum glucose levels (≧300 mg/dl in fed state) were similar between groups. A minimum of 7 days was allowed for adaptation after arrival. All animals were maintained under controlled temperature (23° C.), relative humidity (50±5%) and light (7:00-19:00), and allowed free access to standard chow (Formulab Diet 5008, Quality Lab Products, Elkridge, Md.) and water.
Treatment cohorts were given daily oral doses of vehicle (1% hydroxypropylmethylcellulose), Compounds BI, CF, CG, CQ or phenylacetate for 17 days. At the end of the treatment period, blood samples were collected and serum glucose and triglycerides were measured.

SMILES	Glucose mg/dL (±SEM) (300 mg/kg daily oral) [mg/dL]	Triglycerides (300 mg/kg daily oral) [mg/dL]	Glucose mg/dL (±SEM) (60 mg/kg daily oral) [mg/dL]	Triglycerides (60 mg/kg daily oral) [mg/dL]	Glucose mg/dL (±SEM) (100 mg/kg daily oral) [mg/dL]	Triglycerides (100 mg/kg daily oral) [mg/dL]
O=C(O)Cc1ccccc1 [Phenylacetate, reference compound]	661 ± 64	171 ± 33				
Cc1cccc(C)c1COc1cccc(C(=O)C(=O)O)c1 [CQ, [3-(2,6-Dimethylbenzyloxy)-phenyl]-oxoacetic acid]			691 ± 37	175 ± 25	786 ± 65	125 ± 10
